Source: ChEMBL document CHEMBL3992499, “Synthesis, biological evaluation, QSAR and molecular dynamics simulation studies of potential fibroblast growth factor receptor 1 inhibitors for the treatment of gastric cancer” (Eur J Med Chem, 2017)
Active and inactive are the calls of the source. No cut-off for these calls is given here.

How the values were obtained:
[1] = system: SGC-7901; assay: Induction of apoptosis in human SGC7901 cells assessed as nuclear fragmentation up to 20 uM after 12 hrs by Hoechst 33342 staining based fluorescence microscopic method; type: functional, cell-based
[2] = system: SGC-7901; assay: Induction of apoptosis in human SGC7901 cells assessed as chromatin condensation after 12 hrs by Hoechst 33342 staining based fluorescence microscopic method; type: functional, cell-based
[3] = system: SGC-7901; assay: Induction of apoptosis in human SGC7901 cells assessed as downregulation of Cyclin D1 expression by western blot method; type: functional, cell-based
[4] = system: MGC-803; assay: Antiproliferative activity against human MGC803 cells after 72 hrs by MTT assay; settings: MGC-803, 72 h
[5] = system: BGC-823; assay: Antiproliferative activity against human BGC823 cells after 72 hrs by MTT assay; settings: BGC-823, 72 h
[6] = system: SGC-7901; assay: Antiproliferative activity against human SGC7901 cells after 72 hrs by MTT assay; settings: SGC-7901, 72 h
[7] = system: SGC-7901; assay: Cell cycle arrest in human SGC7901 cells assessed as reduction in G2/M phase up to 20 uM after 8 hrs by propidium iodide staining based flow cytometry; type: functional
[8] = system: SGC-7901; assay: Induction of apoptosis in human SGC7901 cells assessed as increase in cleaved PARP expression level at 10 uM after 48 hrs by Western blot method; type: functional, cell-based
[9] = system: SGC-7901; assay: Cell cycle arrest in human SGC7901 cells assessed as accumulation at G0/G1 phase after 8 hrs by propidium iodide staining based flow cytometry; type: functional
[10] = system: SGC-7901; assay: Induction of apoptosis in human SGC7901 cells assessed as decrease in Bcl2 expression level after 48 hrs by Western blot method; type: functional, cell-based
[11] = system: SGC-7901; assay: Induction of apoptosis in human SGC7901 cells assessed as increase in cleaved PARP expression level after 48 hrs by Western blot method; type: functional, cell-based
[12] = system: SGC-7901; assay: Induction of apoptosis in human SGC7901 cells assessed as decrease in Bcl2 expression level at 10 uM after 48 hrs by Western blot method; type: functional, cell-based

With `CCN(CC)c1ccc(/C=C/C(=O)/C=C/c2ccc(O)c(OC)c2)cc1` the Activity [1] was “Active”, the Activity [2] was “Dose-dependent effect” and the Activity [3] was “Dose-dependent effect”. The IC50 [4] was 2.1 µM, the IC50 [5] was 2.5 µM and the IC50 [6] was 8.2 µM. For the same compound, the Activity [7] was “Active”, the Activity [8] was “Active” and the Activity [9] was “Dose-dependent effect”. The Activity [10] was “Dose-dependent effect”, the Activity [11] was “Dose-dependent effect” and the Activity [12] was “Active”.

`COc1cc(/C=C2\CCC/C(=C\c3ccc(N4CCCCC4)cc3)C2=O)ccc1OC(=O)C(C)C` was tested, and the IC50 [4] was 11.8 µM, the IC50 [5] was 31.5 µM and the IC50 [6] was 18.8 µM.

`CC(Cc1ccc(O)c(O)c1)C(C)Cc1ccc(O)c(O)c1` (configuration not stated) [NORDIHYDROGUAIARETIC ACID] gave an IC50 [4] of 45.8 µM, an IC50 [5] of over 60 µM and an IC50 [6] of over 60 µM.

In the case of `COc1cc(/C=C2\CC/C(=C\c3c[nH]c4ccc(Br)cc34)C2=O)ccc1O`, the Activity [1] is reported as “Active”, the Activity [2] is reported as “Dose-dependent effect” and the Activity [3] is reported as “Dose-dependent effect”. It also gave an IC50 [4] of 2.6 µM, an IC50 [5] of 2 µM and an IC50 [6] of 9.6 µM. The Activity [7] was “Active”, the Activity [8] was “Active” and the Activity [9] was “Dose-dependent effect”. The Activity [10] was “Dose-dependent effect”, the Activity [11] was “Dose-dependent effect” and the Activity [12] was “Active”.

`COc1cc(CCc2cc(NC(=O)c3ccc(N4C[C@@H](C)N[C@@H](C)C4)cc3)n[nH]2)cc(OC)c1` [FEXAGRATINIB] gave an IC50 [4] of 6.2 µM, an IC50 [5] of 7.9 µM and an IC50 [6] of 2.8 µM.

For `CCC(=O)Oc1ccc(/C=C2\CC/C(=C\c3ccc(OC(=O)CC)c(OC)c3)C2=O)cc1OC`, the IC50 [4] was 8.3 µM, the IC50 [5] was 11.9 µM and the IC50 [6] was 4.7 µM.

`COc1cc(/C=C/C(=O)/C=C/c2ccc(N3CCCC3)cc2)ccc1O` gave an IC50 [4] of 12.3 µM, an IC50 [5] of 21.2 µM and an IC50 [6] of 8.2 µM.

Compound `COc1cc(/C=C2\CC/C(=C\c3ccc(OC(=O)C(C)C)c(OC)c3)C2=O)ccc1OC(=O)C(C)C` has an IC50 [4] of 5 µM, an IC50 [5] of 10.1 µM and an IC50 [6] of 5.7 µM.
